Measurements from patent US5498601A, “Platelet aggregation-inhibiting peptides” (Nippon Steel Corporation, priority 1992, dated 1996).
Residues, ends and D or L forms follow the SMILES beside them. *: point of attachment. X1 = O=C(c1cc(=O)[nH]c(=O)[nH]1)*

What was measured:
[1] = system: human platelets
Protocol: (§4) Immediately after the blood collection, the syringe was stirred gently to mix the blood with the sodium citrate solution. The mixed blood was centrifuged (1100 rpm, 250 g) at room temperature for 15 minutes and the rotation was stopped without applying the brake. Then, the supernatant was collected with a pipette to obtain a platelet fraction. The remaining blood was further centrifuged (3000 rpm, 1000 g). The supernatant was collected to obtain platelet-poor plasma and stored.
(§5) The platelet fraction was placed in a polypropylene test tube, which was capped with a membrane filter to ensure breathability. Then, the test tube was placed on a shaker and stored at room temperature while shaking through vibrational amplitude of 20 cm at a frequency of 2 Hz. All the operations were performed under aseptic conditions to prevent the proliferation of bacteria during the storage.
(§6) After the storage for a given period of time, an aliquot of the platelet fraction was sampled and the number of platelets was measured. Prostaglandin E1 (Sigma Co.) was added to give a final concentration of 20 μg/ml and centrifuged at 750 g for 10 minutes. The supernatant was removed and the remainder was washed twice with HEPES-Tyrode's buffer containing prostaglandin E1 to remove the protected peptide. Finally, the platelets were suspended in preliminarily stored platelet-poor plasma. After the incubation for a given period of time, the aggregation ability of the platelets was determined by the method described above.

[2] = system: Hela cells; assay: adhesion of HeLa cells to extracellular matrix protein adsorbed plates; format: cell-based
Protocol: (§1) (1) Using type 1 collagen (Iwaki Glass, type I-c), type 4 collagen (Iwaki Glass, type IV), fibronectin (human-origin, Iwaki Glass), vitronectin (human-origin, Iwaki Glass) and laminin (mouse […] sarcoma-origin, Iwaki Glass) as extracellular matrix proteins, experiments were performed to examine cell adhesion to a plastic plate on which those ectracellular matrix proteins had been adsorbed.
(§2) Each of the collagens was diluted with saline (adjusted to pH 3.0 with hydrochloric acid) to prepare a dilution at a concentration of 100 μg/ml for use in adsorption. The remaining three proteins were diluted with PBS of pH 7.4 to prepare dilutions at a concentration of 20 μg/ml for further use. […]
(§3) After the incubation for one hour according to the method described above, all the liquid present in each well was removed and the wells were washed three times with PBS to remove non-adherent cells. […] The concentration of methylene blue releasing from the cells was determined by a spectrophotometer on the basis of absorbance at 600 nm measured. In this measurement system, the number of cells adhering to the extracellular matrix proteins is proportional to the absorbance at 600 nm and therefore can be measured with precision.

[3] = system: B16F10 melanoma cells; assay: adhesion of B16F10 melanoma cells to extracellular matrix protein adsorbed plates; format: cell-based
Protocol: as §1, §2, §3

[4] = system: blood coagulation in the dialysis circuit; assay: extracorporeal circulation (artificial dialysis) model using a beagle; format: in vivo
Protocol: In order to confirm that the peptides of the present invention have the action of inhibiting blood coagulation in an extracorporeal circulation system, experiments were carried out on an artificial dialysis model using a beagle which is one of extracorporeal circulation models (see Hamano et al., Thromb. Res. 55 (1989) 438-449).
In the experiments, beagles weighing about 10-12 Kg were used. The beagles were anesthetized with pentobarbital (about 30 mg/Kg) and the right hind leg was incised to expose the femoral artery and femoral vein. Cannulas were inserted into the exposed femoral artery and femoral vein and connected to the artificial dialyzator for experiments (Kuraray, Osaka, Japan) having a circuit configuration as shown in FIG. 5. A hollow-fiber dialyzer (RENAK-A, RA-04, 0.4 m^2, Kawasumi Laboratories, Tokyo) was used. A pump for blood was placed between the femoral artery and the dialyzator and operated to keep the blood flow rate at 25 ml/min in the extracorporeal circulation system during the experiments.
The following three parameters were measured in the experiments: 1 the pressure in the up-stream portion of the dialyzer (perfusion pressure), 2 the percent platelet adhesion and 3 the whole blood coagulation time. The pressure under 1 was measured by a pressure gauge incorporated in the upper stream portion of the dialyzator in the dialysis circuit as shown in FIG. 5. Since at the site of dialyzer blood often experiences contacts with foreign materials and blood flows in a narrow space, blood coagulation is most likely to occur at this site in the dialysis circuit. If blood coagulation occurs there, the dialyzer is clogged and the blood pressure in the up-stream portion will increase. The change in the perfusion pressure at this site indicates the degree of blood coagulation in the dialysis circuit. In connection with parameters2 and 3, an aliquot of blood was sampled at the inlet and outlet of the dialysis part at given intervals of time to measure 2 and 3 by conventional methods. Parameters 2 and 3 indicate how the function of platelets and that of blood coagulation (the degree of activation), respectively, change with the progress of the experiments.
The experiments began with a continuous injection of a solution of the peptide of the present invention in saline from the arterial side (or the inlet side of the dialysis circuit) immediately after the circuit set-up. The amount of injection was 10 mg/dog or 30 mg/dog and the total amount was gradually injected over 1 hour (injection rate: 1 ml/min). In a control, only saline was continuously injected in the same manner. The injection of the drug was stopped after 60 minutes and blood was thereafter circulated up to 180 minutes to continue the measurement of the above parameters. […]

[5] = system: human platelets; assay: protection of human platelet fraction during storage
Protocol: as §4, §5, §6

[6] = system: platelet aggregation; assay: intravenous injection in beagle, platelet aggregation of PRP measured over time; format: in vivo; settings: 5 mg/Kg i.v.
Protocol: (1) In order to examine how long the peptides of the present invention and heparin, which is used as an anticoagulant at present, can remain without being broken down or eliminated and how long the activity of them persists, intravenous injection experiments were carried out using beagles.
Since the peptides of the present invention have the platelet aggregation-inhibiting activity, the amount of the peptides which remain in the body of an organism without being broken down can be determined by collecting blood and measuring the platelet aggregation-inhibiting activity of the blood at given intervals of time. Thus, the in vivo stability of the peptides can be estimated.
In the experiments, a male beagle having a body weight of 10 Kg was used. […] The collected blood was centrifuged at 1000 rpm for 10 minutes to prepare platelet-rich plasma (PRP). The reminder was further centrifuged at 3000 rpm for 15 minutes to prepare platelet-poor plasma (PPP).
The platelet aggregation ability was determined by measuring the platelet aggregation of the PRP with collagen and ADP using an aggregometer. In the measurement, ADP was added at a final concentration of 7.5 and 10.0 μM and collagen was added at a final concentration of 7.5 and 10.0 μg/ml.

[7] = system: platelet aggregation; settings: 400 μM; cited from earlier work
[8] = type 1 collagen, type 4 collagen, fibronectin, vitronectin
[9] = during the continuous injection of the drug

## NC(N)=NCCC[C@H](N)C(=O)NCC(=O)N[C@@H](CC(=O)O)C(=O)N[C@@H](CO)C(=O)O [Comparative Example 1, Arg--Gly--Asp--Ser--OH]
[1]
  stability when added to a platelet fraction: broken down in several hours

## N=C(N)NCCC[C@H](NC(=O)[C@H](CO)NC(=O)c1cc(=O)[nH]c(=O)[nH]1)C(=O)NCC(=O)N[C@@H](CC(=O)O)C(=O)N[C@@H](Cc1c[nH]c2ccccc12)C(=O)O [Example 9, Orotyl--Ser--Arg--Gly--Asp--Trp--OH] (X1-SRGDW-OH)
[2]; laminin
  effect on cell adhesion to laminin: scarcely any effect
[2]; [8]
  cell adhesion to the other extracellular matrix proteins: inhibited depending on the concentration
[3]; laminin
  effect on cell adhesion to laminin: scarcely any effect
[3]; [8]
  cell adhesion to the other extracellular matrix proteins: inhibited depending on the concentration
[4]; 10 mg/dog continuously injected over 1 hour
  increase in the perfusion pressure: the increase rate of the perfusion pressure was evidently slow
[4]; 30 mg/dog continuously injected over 1 hour, during the injection
  increase in the perfusion pressure: little or no increase in the perfusion pressure
[4]; [9]
  blood coagulation ability during the continuous injection: approximately 0%
  whole blood coagulation time: significantly prolonged
[5]; 400 μM, after the 72 hour storage
  aggregation activity of platelets remaining: 60-70%
[5]; 400 μM, storage period of 72 hours
  decrease in the number of platelets: little decrease in the number of platelets
[5]; dependent on peptide concentration, control decreased to 25% in 72 hours
  decrease in the aggregation activity of platelets during storage: the decrease in the aggregation activity was significantly inhibited
[5]; room temperature, shaking, dependent on peptide concentration
  decrease in the number of platelets during storage compared to the control group: significant inhibitory effect on the decrease in the number of platelets
[6]
  platelet aggregation time course with changed collagen concentration or ADP as inducer: the same results were obtained
[6]; collagen 10 μg/ml as inducer
  platelet aggregation 5 minutes after the injection: completely inhibited
  time to complete recovery of platelet aggregation activity to the level before the injection: 45 to 60 min

## GRGDSP
[7]
  aggregation of platelets activated by ADP: completely inhibited
